Experimental data taken from patent publication EP1247803A2, “Indolinone compounds suitable for modulation of protein kinases” (Sugen, Inc., priority 1996, dated 1998).

What was measured:
FLK-1 receptor = target: T1, FLK-1 receptor (Mus musculus, UniProt P35918); test: FLK-1 ELISA (kinase activity of the FLK-1 receptor in FLK-1/NIH3T3 cells, VEGF stimulated); assay type: cell-based
T1 construct: expressed in transfected cells; host or cells: NIH3T3 C7#3
Procedure, shortened: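 NIH3T3 C7#3 cells expressing FLK-1 were seeded at 25.000 cells/well, serum-starved overnight in 0.1% FBS, then treated with compound for two hours at 37°C (final DMSO 0.5%) before VEGF stimulation. Receptor was captured on anti-rabbit IgG-coated ELISA plates bearing affinity-purified anti-FLK-1 antiserum.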

MET = MET biochemical kinase assay; parameters: species or system human; concentration or dose not given beside the values
Procedure, shortened: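 MET from cell lysates captured on ELISA plates via rabbit anti-MET cytoplasmic-domain antibody; compounds added and kinase reaction run in ATP and divalent-metal buffer. Receptor phosphotyrosine detected with HRP-conjugated anti-phosphotyrosine antibody and TMB colorimetry.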

T1 sequence (P35918 20-1345): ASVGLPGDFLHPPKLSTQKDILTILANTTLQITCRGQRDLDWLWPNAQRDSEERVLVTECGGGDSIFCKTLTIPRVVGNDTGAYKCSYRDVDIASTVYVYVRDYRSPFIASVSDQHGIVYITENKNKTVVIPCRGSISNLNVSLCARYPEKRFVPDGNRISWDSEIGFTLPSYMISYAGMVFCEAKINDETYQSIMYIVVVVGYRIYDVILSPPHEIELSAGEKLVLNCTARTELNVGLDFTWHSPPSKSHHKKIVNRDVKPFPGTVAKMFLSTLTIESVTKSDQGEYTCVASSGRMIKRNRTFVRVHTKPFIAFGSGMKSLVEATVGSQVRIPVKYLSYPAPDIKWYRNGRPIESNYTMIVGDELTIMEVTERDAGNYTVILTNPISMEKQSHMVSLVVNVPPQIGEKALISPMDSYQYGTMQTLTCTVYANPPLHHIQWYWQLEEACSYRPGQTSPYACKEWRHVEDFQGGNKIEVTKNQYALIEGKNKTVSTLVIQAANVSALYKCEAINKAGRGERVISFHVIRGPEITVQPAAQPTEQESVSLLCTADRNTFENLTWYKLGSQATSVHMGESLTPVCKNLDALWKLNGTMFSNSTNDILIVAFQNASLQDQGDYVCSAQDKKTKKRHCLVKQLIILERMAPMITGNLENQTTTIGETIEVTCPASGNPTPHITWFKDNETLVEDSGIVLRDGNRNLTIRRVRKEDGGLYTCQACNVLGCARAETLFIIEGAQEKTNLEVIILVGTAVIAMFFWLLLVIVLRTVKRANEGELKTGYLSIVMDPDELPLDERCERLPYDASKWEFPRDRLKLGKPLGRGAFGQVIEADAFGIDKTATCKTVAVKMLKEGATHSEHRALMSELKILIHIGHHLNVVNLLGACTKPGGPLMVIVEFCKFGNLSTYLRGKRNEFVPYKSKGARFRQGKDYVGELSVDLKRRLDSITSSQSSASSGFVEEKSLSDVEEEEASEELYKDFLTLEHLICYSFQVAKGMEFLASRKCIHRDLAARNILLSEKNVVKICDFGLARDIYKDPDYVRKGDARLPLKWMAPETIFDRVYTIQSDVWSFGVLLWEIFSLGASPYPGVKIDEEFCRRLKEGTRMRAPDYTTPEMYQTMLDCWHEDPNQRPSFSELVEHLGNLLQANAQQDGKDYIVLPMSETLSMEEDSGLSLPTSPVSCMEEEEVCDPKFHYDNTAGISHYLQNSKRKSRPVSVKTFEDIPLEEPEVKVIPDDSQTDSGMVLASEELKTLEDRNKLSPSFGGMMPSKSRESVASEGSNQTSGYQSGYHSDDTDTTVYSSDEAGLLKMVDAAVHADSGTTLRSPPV

## COc1ccc(O)c(C=C2C(=O)Nc3ccc(Br)c(C)c32)c1 [10720/C10]
FLK-1 receptor
  Fik Kinase %Inhibition: -21.1%
MET
  Met Kinase % Inhibition: 62.6%

## COc1ccc(C=C2C(=O)Nc3ccc(I)cc32)cc1OC [10720/B04]
FLK-1 receptor
  Fik Kinase %Inhibition: 9.8%
MET
  Met Kinase % Inhibition: 61.8%

## O=C1Nc2ccc(S(=O)(=O)N3CCOCC3)cc2C1=Cc1ccc(F)cc1C(F)(F)F [10719/F11]
FLK-1 receptor
  Fik Kinase %Inhibition: 11.6%
MET
  Met Kinase % Inhibition: 8.7%

## O=C1Nc2ccc(I)cc2C1=Cc1ncc[nH]1 [10720/B11]
FLK-1 receptor
  Fik Kinase %Inhibition: -20.3%
MET
  Met Kinase % Inhibition: 42.1%

## O=C1Nc2c(Br)cc(Br)cc2C1=Cc1ccccc1O [10720/A05]
FLK-1 receptor
  Fik Kinase %Inhibition: 8.0%
MET
  Met Kinase % Inhibition: 43.4%

## Cc1c(Br)ccc2c1C(=Cc1ncc[nH]1)C(=O)N2 [10720/C11]
FLK-1 receptor
  Fik Kinase %Inhibition: 52.5%
MET
  Met Kinase % Inhibition: 30.0%

## O=C1Nc2ccc(I)cc2C1=Cc1c(F)cc(F)cc1F [10720/B02]
FLK-1 receptor
  Fik Kinase %Inhibition: 6.5%
MET
  Met Kinase % Inhibition: 38.8%

## CNS(=O)(=O)c1ccc2c(c1)C(=Cc1ccc(F)cc1Cl)C(=O)N2 [10719/D09]
FLK-1 receptor
  Fik Kinase %Inhibition: 7.8%
MET
  Met Kinase % Inhibition: 13.0%

## CNS(=O)(=O)c1ccc2c(c1)C(=Cc1c(F)cc(F)cc1F)C(=O)N2 [10720/D02]
FLK-1 receptor
  Fik Kinase %Inhibition: 12.1%
MET
  Met Kinase % Inhibition: 17.8%

## COc1ccc(C=C2C(=O)Nc3ccc(Br)c(C)c32)cc1OC [10720/C04]
FLK-1 receptor
  Fik Kinase %Inhibition: 15.3%
MET
  Met Kinase % Inhibition: 29.0%

## CNS(=O)(=O)c1ccc2c(c1)C(=Cc1ccc(OC)cc1OC)C(=O)N2 [10719/D04]
FLK-1 receptor
  Fik Kinase %Inhibition: 27.8%
MET
  Met Kinase % Inhibition: 28.9%

## Cc1c(Br)ccc2c1C(=Cc1cccs1)C(=O)N2 [10717/C03]
FLK-1 receptor
  Fik Kinase %Inhibition: -7.7%
MET
  Met Kinase % Inhibition: 25.3%

## O=C1Nc2ccc(S(=O)(=O)Nc3ccc(C(F)(F)F)cc3)cc2C1=Cc1ccc(F)cc1C(F)(F)F [10719/E11]
FLK-1 receptor
  Fik Kinase %Inhibition: 26.3%
MET
  Met Kinase % Inhibition: 28.5%

## CCOc1cc(C=C2C(=O)Nc3c(Br)cc(Br)cc32)ccc1O [10720/A09]
FLK-1 receptor
  Fik Kinase %Inhibition: 8.1%
MET
  Met Kinase % Inhibition: 75.4%

## O=C1Nc2ccc(CCCl)cc2C1=Cc1ccc(F)cc1C(F)(F)F [10719/G11]
FLK-1 receptor
  Fik Kinase %Inhibition: 6.9%
MET
  Met Kinase % Inhibition: 24.0%

## O=C1Nc2ccc(CCCl)cc2C1=Cc1ccc(O)cc1 [10719/G07]
FLK-1 receptor
  Fik Kinase %Inhibition: 20.1%
MET
  Met Kinase % Inhibition: 24.0%

## CN(C)c1ccc(C=C2C(=O)Nc3ccc(S(=O)(=O)N4CCOCC4)cc32)cc1 [10719/F08]
FLK-1 receptor
  Fik Kinase %Inhibition: 15.1%
MET
  Met Kinase % Inhibition: 75.7%

## COc1cc(OC)c(C=C2C(=O)Nc3ccc(S(=O)(=O)Nc4ccc(C(F)(F)F)cc4)cc32)c(OC)c1 [10719/E06]
FLK-1 receptor
  Fik Kinase %Inhibition: 17.1%
MET
  Met Kinase % Inhibition: -4.5%

## COc1cc(O)ccc1C=C1C(=O)Nc2c(Br)cc(Br)cc21 [10720/A03]
FLK-1 receptor
  Fik Kinase %Inhibition: 17.7%
MET
  Met Kinase % Inhibition: 58.2%
